24 molecules from patent US6274557A, “Inhibition of nitric oxide synthase by amino acids and dipeptides” (Northwestern University, priority 1999, dated 2001) can be followed below.

One may read the Ki as the equilibrium dissociation constant of an inhibitor or competing ligand from its target. Usually IC50 stands for the midpoint of a concentration-inhibition curve. High values mean weaker potency in that assay, low ones greater potency in that assay.

Each structure is given as a SMILES string. Where “and” joins values, the source holds several entries; their conditions need not be identical. Equal values may be shown once. Read-outs that look alike come from different tables or passages of the source. Peptide text beside a SMILES is read from it.

In assay [1] the target is neuronal nitric oxide synthase (nNOS) from bovine brain (Bos taurus, UniProt A0A3Q1M6M2). The assay can be described thus: Hemoglobin capture assay of nitric oxide formation, nNOS. As to conditions: for most potent inhibitors (based on isoform inhibition data): dipeptide amides of Table 3; for nNOS/iNOS selectivity / nNOS/eNOS selectivity: Table 2 dipeptides; for nNOS/iNOS selectivity: in favor of nNOS over iNOS; for nNOS/eNOS selectivity: nNOS over eNOS; for time-dependent inhibition of any of the isoforms: nNOS, iNOS and eNOS.
Procedure: (§1) Nitric oxide formation was measured by using the hemoglobin capture assay. […] The production of nitric oxide by eNOS was measured as described. […] All assays were in a final volume of 600 μL and were initiated with enzyme.
(§2) The reversible inhibition of NOS by the dipeptide analogs was studied under initial rate conditions with the hemoglobin assay as described above. […] With various L-arginine and inhibitor concentrations.

Assay [2] has as its target recombinant murine macrophage nitric oxide synthase (iNOS) (Mus musculus, UniProt P29477). The assay can be described thus: Hemoglobin capture assay of nitric oxide formation, iNOS. Conditions: for iNOS/eNOS selectivity: Table 2 dipeptides.
Procedure: as §1, §2
Assay [3] deals with T1, recombinant bovine endothelial nitric oxide synthase (eNOS) (Bos taurus, UniProt P29473).
T1 construct: made in house; host or cells: E. coli
The assay can be described thus: Hemoglobin capture assay of nitric oxide formation, eNOS. The format is biochemical. Conditions: for selectivity of eNOS over iNOS: Table 2 dipeptides.
Procedure: as §1, §2

Setting [4] is: read-out: Ki iNOS, Table 2, Dixon plots, ^a = uncompetitive inhibition.
Setting [5] is: read-out: Ki nNOS, Table 2, Dixon plots.

Chain of neuronal nitric oxide synthase (nNOS) from bovine brain (A0A3Q1M6M2 entry or part of it): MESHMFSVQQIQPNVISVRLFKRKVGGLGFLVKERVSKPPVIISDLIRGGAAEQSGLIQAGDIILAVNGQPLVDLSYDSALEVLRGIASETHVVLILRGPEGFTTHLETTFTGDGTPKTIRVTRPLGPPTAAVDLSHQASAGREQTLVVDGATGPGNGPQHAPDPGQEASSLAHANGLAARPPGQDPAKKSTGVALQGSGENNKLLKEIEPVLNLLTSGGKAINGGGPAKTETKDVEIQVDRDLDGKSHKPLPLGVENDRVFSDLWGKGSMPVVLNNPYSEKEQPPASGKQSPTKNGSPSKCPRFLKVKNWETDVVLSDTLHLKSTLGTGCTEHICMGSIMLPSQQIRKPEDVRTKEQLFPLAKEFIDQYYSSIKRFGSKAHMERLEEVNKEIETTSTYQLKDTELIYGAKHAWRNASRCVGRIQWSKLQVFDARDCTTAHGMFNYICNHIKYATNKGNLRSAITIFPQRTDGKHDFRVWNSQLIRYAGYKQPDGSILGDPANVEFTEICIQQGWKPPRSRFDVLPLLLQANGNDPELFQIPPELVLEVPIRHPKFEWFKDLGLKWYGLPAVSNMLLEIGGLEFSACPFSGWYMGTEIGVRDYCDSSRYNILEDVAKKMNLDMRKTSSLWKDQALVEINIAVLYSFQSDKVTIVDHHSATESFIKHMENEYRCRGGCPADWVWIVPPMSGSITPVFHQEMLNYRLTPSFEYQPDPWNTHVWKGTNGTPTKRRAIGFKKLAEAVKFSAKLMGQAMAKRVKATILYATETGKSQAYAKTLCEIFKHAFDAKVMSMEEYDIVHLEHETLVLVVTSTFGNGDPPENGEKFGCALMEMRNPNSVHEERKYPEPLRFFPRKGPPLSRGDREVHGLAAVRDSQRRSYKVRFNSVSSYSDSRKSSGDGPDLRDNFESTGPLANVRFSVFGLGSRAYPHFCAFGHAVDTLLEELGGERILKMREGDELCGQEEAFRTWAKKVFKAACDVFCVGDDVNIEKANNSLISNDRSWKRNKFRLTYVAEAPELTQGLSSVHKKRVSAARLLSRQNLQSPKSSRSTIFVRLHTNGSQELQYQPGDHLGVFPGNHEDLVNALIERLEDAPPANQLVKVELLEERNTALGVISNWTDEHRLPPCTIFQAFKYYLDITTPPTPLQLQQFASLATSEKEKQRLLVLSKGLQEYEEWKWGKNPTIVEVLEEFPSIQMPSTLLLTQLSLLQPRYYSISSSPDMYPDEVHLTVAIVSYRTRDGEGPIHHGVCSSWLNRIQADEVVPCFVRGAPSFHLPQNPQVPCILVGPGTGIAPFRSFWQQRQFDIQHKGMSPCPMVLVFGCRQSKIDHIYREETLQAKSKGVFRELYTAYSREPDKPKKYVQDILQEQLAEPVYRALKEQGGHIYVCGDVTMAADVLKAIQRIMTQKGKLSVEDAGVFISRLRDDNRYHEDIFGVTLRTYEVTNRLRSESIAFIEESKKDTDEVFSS

Take `N=C(NCCC[C@@H](NC(=O)[C@H](N)CCCCN)C(N)=O)N[N+](=O)[O-]` [D-Lys-D-nitroArg] (HELM PEPTIDE1{[dK].[N=C(NCCC[C@@H](N[*:1])C(=O)[*:2])N[N+](=O)[O-]].[am]}$$$$V2.0): in assay [1], the “most potent inhibitors (based on isoform inhibition data)” value is “most potent”.
Same read-out and setting: for `N=C(NCCC[C@@H](NC(=O)[C@H](N)CCCN)C(N)=O)N[N+](=O)[O-]` [D-Orn-D-nitroArg] (HELM PEPTIDE1{[NCCC[C@@H](N)C(=O)[*:2]].[N=C(NCCC[C@@H](N[*:1])C(=O)[*:2])N[N+](=O)[O-]].[am]}$$$$V2.0) the value was “most potent”; for `N=C(NCCC[C@@H](NC(=O)[C@@H](N)Cc1cnc[nH]1)C(N)=O)N[N+](=O)[O-]` [L-His-D-nitroArg] (HELM PEPTIDE1{H.[N=C(NCCC[C@@H](N[*:1])C(=O)[*:2])N[N+](=O)[O-]].[am]}$$$$V2.0), “most potent”; for `N=C(NCCC[C@@H](NC(=O)[C@@H](N)CCCCN)C(N)=O)N[N+](=O)[O-]` [L-Lys-D-nitroArg] (HELM PEPTIDE1{K.[N=C(NCCC[C@@H](N[*:1])C(=O)[*:2])N[N+](=O)[O-]].[am]}$$$$V2.0), “most potent”.
On the same count and under the same terms, to `N=C(NCCC[C@H](N)C(=O)N[C@H](CC(N)=O)C(N)=O)N[N+](=O)[O-]` [L-nitroArg-D-Asn] (HELM PEPTIDE1{[N=C(NCCC[C@H](N)C(=O)[*:2])N[N+](=O)[O-]].[dN].[am]}$$$$V2.0) belongs “most potent”; to `N=C(NCCC[C@H](N)C(=O)N[C@H](CCC(N)=O)C(N)=O)N[N+](=O)[O-]` [L-nitroArg-D-Gln] (HELM PEPTIDE1{[N=C(NCCC[C@H](N)C(=O)[*:2])N[N+](=O)[O-]].[dQ].[am]}$$$$V2.0), “most potent”.
The same measure, in the same setting: to `N=C(NCCC[C@H](N)C(=O)N[C@@H](CCN)C(=O)O)N[N+](=O)[O-]` [L-nitroArg-L-Dbu, L-nitroArg-L-2,4-diaminobutanoic acid] (HELM PEPTIDE1{[N=C(NCCC[C@H](N)C(=O)[*:2])N[N+](=O)[O-]].[Dab]}$$$$V2.0) belongs “most potent”.
With `N=C(NCCC[C@H](N)C(=O)N[C@@H](CN)C(=O)O)N[N+](=O)[O-]` [L-nitroArg-L-Dpr, L-nitroArg-L-2,3-diaminopropanoic acid] (HELM PEPTIDE1{[N=C(NCCC[C@H](N)C(=O)[*:2])N[N+](=O)[O-]].[NC[C@H](N[*:1])C(=O)O]}$$$$V2.0), in assay [1], the “most potent inhibitors (based on isoform inhibition data)” value was “most potent”.
In the case of `C=CCNC(=N)NCCC[C@H](N)C(=O)O` [allyl, N^ω -allyl-L-arginine, reference compound], the Ki is 2.1 µM in assay [2], 0.2 µM in assay [1] and 3.1 µM in assay [3] (Table 1). For the same molecule, the “Selectivity nNOS/eNOS” value in assay [1] was 15 and 15.5.
`N=C(NCCC[C@H](N)C(=O)N[C@@H](Cc1ccccc1)C(=O)O)N[N+](=O)[O-]` [compound 1, L-Arg^NO2 L-Phe]: in assay [2], the iNOS/eNOS selectivity worked out at 2.5. Further, the Ki in assay [2] (setting [4]) is 160 µM; in assay [1] (setting [5]) it was 18 µM; in assay [3] (Table 2, Dixon plots), 395 µM. Besides, the nNOS/iNOS selectivity in assay [1] worked out at 8.9. The same molecule came in with a nNOS/eNOS selectivity in assay [1] of 21.9. In assay [1], the “time-dependent inhibition of any of the isoforms” value (“time-dependent inhibition” below) was “None”.
With `N=C(NCCC[C@H](NC(=O)[C@@H](N)Cc1ccccc1)C(=O)O)N[N+](=O)[O-]` [compound 2, L-Phe-L-Arg^NO2] (HELM PEPTIDE1{F.[N=C(NCCC[C@H](N[*:1])C(=O)O)N[N+](=O)[O-]]}$$$$V2.0), the iNOS/eNOS selectivity in assay [2] worked out at 5.3. Besides, in assay [2] (setting [4]), the inhibition constant Ki worked out at 93 µM. Besides, in assay [1], the nNOS/iNOS selectivity stood at 0.66, the nNOS/eNOS selectivity is reported as 3.5 and the “time-dependent inhibition” value was “None”. Moreover, the Ki in assay [1] (setting [5]) came to 140 µM. Further, the Ki in assay [3] (Table 2, Dixon plots) is 490 µM.
Turning to `COC(=O)[C@H](Cc1ccccc1)NC(=O)[C@@H](N)CCCNC(=N)N[N+](=O)[O-]` [compound 3, L-Arg^NO2 -L-Phe-OMe], in assay [2], the iNOS/eNOS selectivity came to 8.9. In addition, the Ki was determined as 45 µM in assay [2] (setting [4]); 14 µM in assay [1] (setting [5]); 400 µM in assay [3] (Table 2, Dixon plots). In addition, the nNOS/iNOS selectivity in assay [1] was found to be 3.2. The molecule also displayed a nNOS/eNOS selectivity in assay [1] of 28.6.
Turning to `COC(=O)[C@H](CCCNC(=N)N[N+](=O)[O-])NC(=O)[C@@H](N)Cc1ccccc1` [compound 4, L-Phe-L-Arg^NO2 -OMe] (HELM PEPTIDE1{F.[N=C(NCCC[C@H](N[*:1])C(=O)[*:2])N[N+](=O)[O-]].[CO[*:1]]}$$$$V2.0), in assay [2], the iNOS/eNOS selectivity came to 6.6. In addition, the Ki in assay [2] (setting [4]) is 204 µM; in assay [1] (setting [5]), 370 µM; in assay [3] (Table 2, Dixon plots) it was 1350 µM. Also, the nNOS/iNOS selectivity in assay [1] is listed as 0.55. In assay [1], this molecule gave a nNOS/eNOS selectivity of 3.6.
As to `N=C(NCCC[C@H](N)C(=O)N[C@@H](Cc1ccccc1)C(=O)OCc1ccccc1)N[N+](=O)[O-]` [compound 5, L-Arg^NO2 -L-Phe-OBn], in assay [2], the iNOS/eNOS selectivity was 6.9. Also, the inhibitory constant (Ki) in assay [2] (setting [4]) turned out to be 18 µM; in assay [1] (setting [5]), 55 µM; in assay [3] (Table 2, Dixon plots) it was 125 µM. The nNOS/iNOS selectivity in assay [1] was found to be 0.33. This molecule showed a nNOS/eNOS selectivity in assay [1] of 2.3.
As for `N=C(NCCC[C@H](NC(=O)[C@@H](N)Cc1ccccc1)C(=O)OCc1ccccc1)N[N+](=O)[O-]` [compound 6, L-Phe-L-Arg^NO2 -OBn] (HELM PEPTIDE1{F.[N=C(NCCC[C@H](N[*:1])C(=O)[*:2])N[N+](=O)[O-]].[c1ccc(CO[*:1])cc1]}$$$$V2.0), in assay [2], the iNOS/eNOS selectivity amounted to 5.6. In addition, the Ki in assay [2] (setting [4]) was found to be 45 µM; in assay [1] (setting [5]), 110 µM; in assay [3] (Table 2, Dixon plots), 250 µM. This molecule also showed a nNOS/iNOS selectivity in assay [1] of 0.41. The molecule also yielded a nNOS/eNOS selectivity in assay [1] of 2.3.
Turning to `COC(=O)[C@@H](Cc1ccccc1)NC(=O)[C@@H](N)CCCNC(=N)N[N+](=O)[O-]` [compound 7, L-Arg^NO2 -D-Phe-OMe], the iNOS/eNOS selectivity in assay [2] stood at 5.3. For the same molecule, the Ki in assay [2] (setting [4]) came out at 100 µM; in assay [1] (setting [5]), 92 µM; in assay [3] (Table 2, Dixon plots) it was 525 µM. For the same molecule, the nNOS/iNOS selectivity in assay [1] was 1.1. For the same molecule, the nNOS/eNOS selectivity in assay [1] was determined as 5.7.
Take `COC(=O)[C@H](Cc1ccccc1)NC(=O)[C@H](N)CCCNC(=N)N[N+](=O)[O-]` [compound 8, D-Arg^NO2 -L-Phe-OMe]: in assay [2], the iNOS/eNOS selectivity is 0.22. Moreover, the inhibitory constant (Ki) in assay [2] (setting [4]) came out at 6400 µM; in assay [1] (setting [5]), 290 µM; in assay [3] (Table 2, Dixon plots) it was 1400 µM. In assay [1], the nNOS/iNOS selectivity amounted to 22.1. The molecule also had a nNOS/eNOS selectivity in assay [1] of 4.8.
Take `COC(=O)[C@@H](Cc1ccccc1)NC(=O)[C@H](N)CCCNC(=N)N[N+](=O)[O-]` [compound 9, D-Arg^NO2 -D-Phe-OMe]: the iNOS/eNOS selectivity in assay [2] was 0.058. For the same molecule, the Ki in assay [2] (setting [4]) came to 6500 µM; in assay [1] (setting [5]), 150 µM; in assay [3] (Table 2, Dixon plots), 375 µM. This molecule also yielded a nNOS/iNOS selectivity in assay [1] of 43.3. The molecule further yielded a nNOS/eNOS selectivity in assay [1] of 2.5.
Take `COC(=O)[C@@H](CCCNC(=N)N[N+](=O)[O-])NC(=O)[C@@H](N)Cc1ccccc1` [compound 10, L-Phe-D-Arg^NO2 -OMe] (HELM PEPTIDE1{F.[N=C(NCCC[C@@H](N[*:1])C(=O)[*:2])N[N+](=O)[O-]].[CO[*:1]]}$$$$V2.0): the iNOS/eNOS selectivity in assay [2] is 0.02. For the same molecule, the Ki in assay [2] (setting [4]) stood at 7500 µM; in assay [1] (setting [5]), 90 µM; in assay [3] (Table 2, Dixon plots), 150 µM. The same molecule had a nNOS/iNOS selectivity in assay [1] of 83.3. This molecule displayed a nNOS/eNOS selectivity in assay [1] of 1.7.
On to `COC(=O)[C@H](CCCNC(=N)N[N+](=O)[O-])NC(=O)[C@H](N)Cc1ccccc1` [compound 11, D-Phe-L-Arg^NO2 -OMe] (HELM PEPTIDE1{[dF].[N=C(NCCC[C@H](N[*:1])C(=O)[*:2])N[N+](=O)[O-]].[CO[*:1]]}$$$$V2.0), for which the iNOS/eNOS selectivity in assay [2] came out at 7.1. In addition, the Ki in assay [2] (setting [4]) is 1200 µM; in assay [1] (setting [5]), 400 µM; in assay [3] (Table 2, Dixon plots), 8500 µM. Also, in assay [1], the nNOS/iNOS selectivity was 3. Moreover, in assay [1], the nNOS/eNOS selectivity is listed as 21.3.
For the molecule `COC(=O)[C@@H](CCCN=C(N)N[N+](=O)[O-])NC(=O)[C@H](N)Cc1ccccc1` [compound 12, D-Phe-D-Arg^NO2 -OMe] (HELM PEPTIDE1{[dF].[N=C(NCCC[C@@H](N[*:1])C(=O)[*:2])N[N+](=O)[O-]].[CO[*:1]]}$$$$V2.0), the iNOS/eNOS selectivity in assay [2] is reported as 0.0014. Moreover, the Ki in assay [2] (setting [4]) amounted to 3600 µM; in assay [1] (setting [5]), 2 µM; in assay [3] (Table 2, Dixon plots) it was 5 µM. The same molecule returned a nNOS/eNOS selectivity in assay [1] of 2.5. Besides, in assay [1], the “time-dependent inhibition” value was “None”. Further, in assay [3], the “selectivity of eNOS over iNOS” value is given as 714 fold.
On to `N=C(NCCC[C@@H](NC(=O)[C@H](N)Cc1ccccc1)C(=O)O)N[N+](=O)[O-]` [compound 13, D-Phe-D-Arg^NO2] (HELM PEPTIDE1{[dF].[N=C(NCCC[C@@H](N[*:1])C(=O)O)N[N+](=O)[O-]]}$$$$V2.0), for which, in assay [2], the iNOS/eNOS selectivity is 0.0066. The inhibitory constant (Ki) in assay [2] (setting [4]) is 13600 µM; in assay [1] (setting [5]), 17 µM; in assay [3] (Table 2, Dixon plots) it was 90 µM. In assay [1], this molecule displayed a nNOS/iNOS selectivity of 800. The nNOS/eNOS selectivity in assay [1] stood at 5.3. The “time-dependent inhibition” value in assay [1] is recorded as “None”. In assay [3], the “selectivity of eNOS over iNOS” value amounted to 152 fold.
In assay [1], `CNC(=N)NCCC[C@H](N)C(=O)O` [methyl, N^ω -methyl-L-arginine, reference compound] registered an IC50 of 10 µM.
Molecule `C#CCNC(=N)NCCC[C@H](N)C(=O)O` [propargyl, N^ω -propargyl-L-arginine, reference compound] showed a Ki in assay [1] of 0.43 µM.
